In BindingDB's records for doi:10.1016/j.bmcl.2008.12.062 (Bristol-Myers Squibb, 2009):

Test: Antagonist activity at CCR2 in human PBMCs assessed as inhibition of MCP1-induced chemotaxis

SMILES	IC50 [nM]
CC(=O)Nc1ccc(CNC2CC(N(C)C)CCC2NC(=O)CNC(=O)c2cccc(C(F)(F)F)c2)cc1 (racemic) [(+/-)-N-(2-(2-(4-acetamidobenzylamino)-4-(dimethylamino)cyclohexylamino)-2-oxoethyl)-3-(trifluoromethyl)benzamide]	17.4
COc1ccc(CNC2CC(N(C)C)CCC2NC(=O)CNC(=O)c2cccc(C(F)(F)F)c2)cc1 (racemic) [(+/-)-N-(2-(4-(dimethylamino)-2-(4-methoxybenzylamino)cyclohexylamino)-2-oxoethyl)-3-(trifluoromethyl)benzamide]	41.4
CSc1ccc(CNC2CC(N(C)C)CCC2NC(=O)CNC(=O)c2cccc(C(F)(F)F)c2)cc1 (racemic) [(+/-)-N-(2-(4-(dimethylamino)-2-(4-(methylthio)benzylamino)cyclohexylamino)-2-oxoethyl)-3-(trifluoromethyl)benzamide]	22.5
CN(C)C1CCC(NC(=O)CNC(=O)c2cccc(C(F)(F)F)c2)C(NCc2ccc3[nH]ccc3c2)C1 (racemic) [(+/-)-N-(2-(2-((1H-indol-5-yl)methylamino)-4-(dimethylamino)cyclohexylamino)-2-oxoethyl)-3-(trifluoromethyl)benzamide]	23

These reach a lower IC50. Values come first.

IC50 [nM]	SMILES
13.5	CSc1ccc(C(=O)NC2CC(N)CCC2NC(=O)CNC(=O)c2cc(C(F)(F)F)ccc2N)cc1 (racemic) [(+/-)-2-amino-N-(2-(4-amino-2-(4-(methylthio)benzamido)cyclohexylamino)-2-oxoethyl)-5-(trifluoromethyl)benzamide]
12.6	Cc1ccc(CNC2CC(N(C)C)CCC2NC(=O)CNC(=O)c2cccc(C(F)(F)F)c2)cc1 (racemic) [(+/-)-N-(2-(4-(dimethylamino)-2-(4-methylbenzylamino)cyclohexylamino)-2-oxoethyl)-3-(trifluoromethyl)benzamide]
5.1	CSc1ccc(C(=O)NC2CC(NC(=O)OCc3ccccc3)CCC2NC(=O)CNC(=O)c2cccc(C(F)(F)F)c2)cc1 (racemic) [(+/-)-benzyl3-(4-(methylthio)benzamido)-4-(2-(3-(trifluoromethyl)benzamido)acetamido)cyclohexylcarbamate]
